Assay results: PMC5442318, “Hundreds of dual-stage antimalarial molecules discovered by a functional gametocyte screen” (Nature Communications, 2017)
pIC50: −log10 of the molar value. Where two headings read alike, the source gives them in different places.

Legend:
HepG2 cells = experiment: HepG2 cytotoxicity assay; assay type: cell-based
How it was run: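 Cell viability is measured by CellTiter-Glo luminescence. Signal is developed at room temperature and read 10 min after adding the reagent, with plates and reagent first equilibrated for 30 min.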

[1] = tested on: P. falciparum stages IV–V gametocytes; experiment: Gametocytocidal ATP-depletion assay (gametocyte ATP bioluminescence); assay type: cell-based, Plasmodium falciparum; details: for inhibition at 2 µM: Plasmodium falciparum, mean
How it was run: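 Read-out is luciferase luminescence of parasite ATP (BacTiter-Glo), standing in for viability. Double-purified mature stage IV–V gametocytes, 12,500 per well, were exposed 48 h at 37 °C in low-O2 gas; screening concentration 2 μM.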

[2] = tested on: P. falciparum female gametes; experiment: Pf FGAA with compounds added 30 min after triggering gametocyte activation (gamete-targeting); assay type: cell-based, Plasmodium falciparum NF54; details: 0h incubation time
[3] = tested on: P. falciparum stage V female gametocytes; experiment: P. falciparum female gametocyte activation assay (Pf FGAA), 24 h or 48 h preincubation, Pfs25 expression readout; assay type: cell-based, Plasmodium falciparum NF54; design: key to Biological profile: 49 compounds that were only active with a 48 h exposure (designated as slow-acting); 29 compounds additionally showed activity with only 24 h exposure (designated as fast-acting); when the compounds were added 30 min after triggering gametocyte activation, 12 compounds prevented cell surface expression of Pfs25 (designated as gamete-targeting); details: for IC50: 24h incubation time, read-out: Pf FGAA IC50 (µM) 24h; for Pf FGAA classification: SLOW / FAST / GAMETE from activity at 48h, 24h, 0h incubation; for Biological profile: Pf FGAA with 48 h, 24 h or post-activation addition, active = IC50 below 2 μM
How it was run: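 Female activation, triggered by xanthurenic acid and cooling, was scored by imaging Cy3-labelled anti-Pfs25 female gametes after 24 h at 26 °C. Beforehand, purified NF54 stage V gametocytes had been incubated with compound for either 24 h or 48 h (37 °C, 3% O2). Values are pIC50 from full-curve regression.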

[4] = tested on: P. falciparum asexual blood stages; details: cited from earlier work; for pIC50: read-out: Pf Asexual blood stages XC50
[5] = P. falciparum female gametocytes, mean, read-out: Gametocytes mean Pf FGAA IC50
[6] = TCAMS asexual blood stage data, ref 1 (Gamo, F. J. et al., Nature 465, 305-310, 2010)
[7] = TCAMS data, ref 1 (Gamo, F. J. et al., Nature 465, 305-310, 2010)
[8] = mean, P. falciparum female gametocyte activation assay, read-out: Gametocytes mean Pf FGAA IC50
[9] = TCAMS data, ref 1 (Gamo et al., 2010)
[10] = mean, read-out: Gametocytes mean Pf FGAA IC50

| IC50 [2] [µM] | IC50 [3] [µM] | pIC50 [3, 5] | Structure (SMILES) | HepG2 cells mean TOX50 (HepG2 cells; HepG2 cells; mean) [µM] | Gametocytes mean ATP inhibition at 2µM [1] [%] | Pf FGAA classification [3] | pIC50 [4, 6] | Pf Asexual stages XC50 [4, 7] [µM] | HepG2 cells mean TOX50 (HepG2 cells; mean) [µM] | Gametocytes mean ATP inhibition at 2µM (%) [1] [%] | pIC50 [4, 9] | further results |
| --- | --- | --- | --- | --- | --- | --- | --- | --- | --- | --- | --- | --- |
| 2.06 | 2.48 |  | CC(C)(CNC(=O)[C@@H]1CCCCN1)c1nc(-c2ccc(Cl)c(O)c2)c(-c2ccncc2)[nH]1.Cl [TCMDC-141079] |  | -6.33 | GAMETE | 6.08 | 0.84 |  |  |  | HepG2 cells mean TOX50 (HepG2 cells; mean; HepG2 cells): 38.91 µM; pIC50 [3, 8]: 5.80 |
|  |  |  | CCCC(=O)NC(c1ccc(C)cc1)c1ccc2cccnc2c1O (stereo not drawn) [TCMDC-123605] | 9.22 |  | FAST | 6.02 | 0.96 |  |  |  | Selectivity ratio (HepG2 cells; HepG2 TOX50 versus Pf FGAA IC50): 5.32; inhibition at 2 µM [1]: 20.2%; IC50 ([2]; Plasmodium falciparum): 3.99 µM; IC50 ([3]; Plasmodium falciparum): 1 µM; pIC50 ([3]; Plasmodium falciparum, P. falciparum female gametocytes, mean, read-out: Gametocytes mean Pf FGAA IC50): 5.76 |
| > 20 | > 20 | 6.31 | Cc1ccc(-n2c(Sc3ncnc4sccc34)nnc2N2CCCC2)cc1 [TCMDC-125247] | 89.13 | 22.13 | SLOW | 6.59 | 0.26 |  |  |  |  |
| 8.15 | 1.91 |  | N#Cc1ccc(Cn2ccc3c4c(N)nc(N)nc4ccc32)cc1 [TCMDC-137820] |  |  | FAST |  | 0.003 | <0.0017 | -6.11 | 8.52 | HepG2 cells TOX50 (HepG2 cells; HepG2 cells): <0.0017 µM; Biological profile [3]: fast-acting; pIC50 ([3]; stage V gametocytes, 48 h exposure, read-out: PfFGAA IC50): 5.97 |
|  |  |  | COc1cc2nc(-c3ccc(Br)cc3)cc(N)c2cc1OC [TCMDC-138933] |  |  | SLOW |  | 0.17 | 4.95 |  | 6.77 | Selectivity ratio (HepG2 cells; HepG2 TOX50 vs Pf FGAA IC50): 6.53; selectivity ratio (selectivity index) (HepG2 cells; HepG2 Tox50 vs Pf FGAA IC50): < 10; inhibition at 2 µM [1]: 0.89%; IC50 ([2]; Plasmodium falciparum): 8.17 µM; Biological profile [3]: slow-acting; IC50 ([3]; Plasmodium falciparum): 3.91 µM; pIC50 ([3]; Plasmodium falciparum, stage V gametocytes, 48 h exposure, read-out: PfFGAA IC50): 6.12 |
| > 20 | 0.41 | 5.89 | CCCc1cc(=O)[nH]c(-n2nc(C)cc2NC(=O)CC(c2ccccc2)c2ccccc2)n1 [TCMDC-124940] | >100 | 0.055 | FAST | 6.21 | 0.51 |  |  |  | HepG2 cells TOX50 (HepG2 cells; HepG2 cells): >100 µM |
| > 20 |  | 5.62 | CN1CCN(Cc2ccc(-c3cc4c(Nc5ccc(OCc6cccc(F)c6)c(Cl)c5)ncnc4s3)[nH]2)CC1 [TCMDC-135458] | 10.98 | -48.07 | SLOW | 6.11 | 0.77 |  |  |  |  |
| > 20 | 0.77 | 6.14 | CCc1cc2c(Sc3nnc(N)s3)ncnc2s1 [TCMDC-123993] | 32.30 | 23.86 | FAST | 6.18 | 0.66 |  |  |  |  |
| > 20 | 0.88 | 5.67 | Cc1ccc2c(c1)c(C1CCN(C(=O)c3ccc([N+](=O)[O-])o3)CC1)cn2C [TCMDC-124787] | 28.85 | -6.61 | FAST | 6.12 | 0.75 |  |  |  |  |
| 6.42 | 4.97 |  | CCOc1ccc2c(=NN=Cc3cc(OC)c(OC)cc3OC)cc(C)[nH]c2c1 [TCMDC-142207] |  | -8.55 | SLOW | 6.00 | 0.17 |  |  |  | HepG2 cells mean TOX50 (HepG2 cells; mean; HepG2 cells): 12.17 µM; pIC50 [3, 8]: 5.91 |
| > 20 | 2.29 |  | Clc1nc(Cl)c2c(ccn2Cc2ccccc2)n1 [TCMDC-137801] |  |  | FAST |  | 0.79 | >100 | -14.95 | 6.10 | HepG2 cells TOX50 (HepG2 cells; HepG2 cells): >100 µM; pIC50 [3, 10]: 5.84 |
| 15.1 | 6.48 |  | CN1CCN(Cc2ccc(OCc3cccc(COc4ccc(CN5CCN(C)CC5)cc4I)c3)c(I)c2)CC1.Cl [TCMDC-137239] |  |  | SLOW |  | 1.01 | 5.01 | -13.43 | 6.00 | pIC50 [3, 10]: 5.73 |
| > 20 | 2.82 | 5.95 | Cc1ccc(C)c2sc(N3CCN(C(=O)c4ccc([N+](=O)[O-])o4)CC3)nc12 [TCMDC-124315] | 37.65 | 3.06 | SLOW | 6.09 | 0.82 |  |  |  |  |
| > 20 | 0.7 | 5.97 | O=C(Nc1nc(-c2ccccn2)cs1)c1ccc(S(=O)(=O)N2CCc3ccccc32)cc1 [TCMDC-125432] | 29.22 | -8.57 | FAST | 6.08 | 0.83 |  |  |  |  |
|  |  |  | CN(C)CCCNCc1cn(S(=O)(=O)c2ccccc2Cl)c2ccccc12 [TCMDC-136302] |  |  | FAST |  | 0.35 | 11.78 |  | 5.97 | Selectivity ratio (HepG2 cells; HepG2 TOX50 vs Pf FGAA IC50): 6.39; inhibition at 2 µM [1]: 3.27%; IC50 ([2]; Plasmodium falciparum): > 20 µM; IC50 ([3]; Plasmodium falciparum): 0.51 µM; pIC50 ([3]; Plasmodium falciparum, mean, read-out: Gametocytes mean Pf FGAA IC50): 5.74 |
| 0.61 | 1.06 |  | CNCC(C)(C)c1nc(-c2ccc(Cl)c(O)c2)c(-c2ccncc2)[nH]1.Cl [TCMDC-140762] |  |  | GAMETE |  | 0.74 | 13.52 | -1.34 | 6.13 | pIC50 [3, 10]: 6.06 |

| Structure (SMILES) | IC50 [2] [µM] | IC50 [3] [µM] | pIC50 [3, 5] | HepG2 cells mean TOX50 (HepG2 cells; HepG2 cells; mean) [µM] | Gametocytes mean ATP inhibition at 2µM [1] [%] | Pf FGAA classification [3] | pIC50 [4, 6] | Pf Asexual stages XC50 [4, 7] [µM] | HepG2 cells mean TOX50 (HepG2 cells; mean) [µM] | Gametocytes mean ATP inhibition at 2µM (%) [1] [%] | pIC50 [4, 9] | further results |
| --- | --- | --- | --- | --- | --- | --- | --- | --- | --- | --- | --- | --- |
| CN1CCC(NCc2cccc(-c3ccc(S(=O)(=O)NCc4ccccc4)c(F)c3)c2)CC1.O=C(O)C(F)(F)F [TCMDC-132219] | > 20 | 12.2 | 5.58 | 5.13 | -1.59 | SLOW | 6.49 | 0.32 |  |  |  |  |
| O=C(NCC1CCN(Cc2cccc(C(F)(F)F)c2)C1)c1cc(-c2cccc(Cl)c2)cs1.O=C(O)C(F)(F)F (stereo not drawn) [TCMDC-134485] | > 20 | 12 | 6.05 | 16.03 | 2.16 | SLOW | 6.10 | 0.80 |  |  |  |  |
| CN1CCN(CCCNCc2ccccc2-c2cccc(CNCc3ccc4c(c3)OCO4)c2)CC1.O=C(O)C(F)(F)F [TCMDC-140476] | > 20 | 5.7 |  |  |  | SLOW |  | 1.07 | 1.51 | -1.87 | 6.10 | pIC50 [3, 10]: 5.79 |
| COc1cccc(CCNC(C)Cc2ccc(OCCCCOc3ccccc3)cc2)c1 (stereo not drawn) [TCMDC-140020] | > 20 | 3.72 |  |  |  | SLOW |  | 0.74 | 1.46 | 8.01 | 6.13 | pIC50 [3, 10]: 5.82 |
